Reference: patent publication US20250351832A1, “PHYTOCHEMICALS AS BIOPESTICIDES AND BIOSTIMULANTS” (KAY BEE BIO ORGANICS PVT. LTD., priority 2024, published 2025)
Read-outs that look alike come from different tables or passages of the source.

Legend:
Spodoptera litura [1] = assay: Controlled conditions, Spodoptera litura on cabbage plants (Ex. 26); conditions: in vivo
Thrips [2] = assay: Greenhouse effect on thrips, cotton plants (Ex. 27); conditions: in vivo
Aphid [3] = test system: Aphid
Mite [4] = assay: Green house effect on mite, okra plants (Ex. 23); conditions: in vivo
[5] = cited from earlier work; for Phytotonic Effect: Table 13, effect on plants, descriptive
Spodoptera litura [6] = assay: whole plant or invertebrate; conditions: 72 h
chili seedlings = assay: Response of chili plants, greenhouse growth (Ex. 31); format: in vivo
Thrips [7] = conditions: 48 h
Spodoptera litura [8] = conditions: 72 h, 1 mL or g/L
Alternaria alternata [9] = assay: Alternaria leaf spot/blight on inoculated tomato plants (Ex. 28); format: in vivo; conditions: tomato plants, Alternaria alternata; after 7 days; dose 1 ml/gm/lit
Helicoverpa armigera [10] = assay: Controlled conditions, Helicoverpa armigera on chickpea plants (Ex. 25); conditions: in vivo
Aphid [11] = assay: whole plant or invertebrate; conditions: 48 h
Helicoverpa armigera [12] = assay: In vitro bio-efficacy against Helicoverpa armigera (Ex. 17); conditions: in vivo
Aphid [13] = conditions: 48 h, 1 mL or g/L
Thrips [14] = conditions: 48 h, 1 mL or g/L
Thrips [15] = assay: whole plant or invertebrate; conditions: in Gossypium hirsutum, 48 h
Alternaria alternata [16] = assay: In vitro poisoned food technique against fungus (Ex. 20); format: cell-based; conditions: poisoned food technique, PDA medium, dose 1 ml/gm/lit., after seven days; for inhibition of growth at 1 mL or g/L: vs untreated control, read-out: % Inhibition of growth
Mealy Bug [17] = assay: Green house effect on mealy bugs, cotton plants (Ex. 24); conditions: in vivo
tomato seedlings = assay: Response of tomato plants, greenhouse growth (Ex. 30); format: in vivo
Mite [18] = conditions: Dose 1 ml/gm/lit.; 48 hrs
Mealy Bug [19] = assay: In vitro bio-efficacy against mealy bug (Ex. 16); conditions: in vivo
[20] = Table 13, descriptive, no test described
[21] = read-out: % Corrected Mortality at 72 Hrs.
[22] = read-out: % Mortality at 72 Hrs.
[23] = chili seedlings, dose 1 ml/gm/lit, 5th day after application
[24] = chili seedlings, dose 1 ml/gm/lit, 10th day
[25] = chili seedlings, dose 1 ml/gm/lit, 10th day after application
[26] = read-out: % Corrected Mortality at 48 Hrs.
[27] = read-out: % Mortality at 48 Hrs.
[28] = tomato seedlings, 5th day after application, dose 1 ml/gm/lit
[29] = tomato seedlings, 10th day after application, dose 1 ml/gm/lit
[30] = tomato seedlings, 10th day, dose 1 ml/gm/lit
[31] = tomato seedlings, dose 1 ml/gm/lit, 10th day

C=CCc1ccc(OC)c(O)c1 [Chavibetol]
% Corrected Mortality at 72 Hrs. (Spodoptera litura [1]): 41.05% | % Mortality at 72 Hrs. (Spodoptera litura [1]): 44.00% | % Corrected Mortality at 48 Hrs. (Thrips [2]): 47.22% | Total No. of dead insect at 48 Hrs. (Aphid [3]): 5.50 | % Corrected Mortality at 48 Hrs. (Aphid [3]; Dose 1 ml/gm/lit., 48 hrs): 48.57% | % Corrected Mortality at 48 Hrs. (Mite [4]): 18.42% | % Mortality at 48 Hrs. (Mite [4]): 22.50% | Antioxidant Activity - Mode of action [5, 20]: Increasing Antioxidative | Bactericidal Activity - Mode of action [5, 20]: Inhibit the reproduction | Insecticidal Activities - Mode of action [5, 20]: Repellent | Phytotonic Effect [5]: trigger seed | mortality at 1 mL or g/L (Spodoptera litura [6]; [21]): 39.5% | mortality at 1 mL or g/L (Spodoptera litura [6]; [22]): 42.5% | CCI Pre (chili seedlings): 9.82 | Plant Height (cm) Pre (chili seedlings): 4.39 cm | CCI 5th Day (chili seedlings; [23]): 14.58 | Plant Height (cm) 5th Day (chili seedlings; [23]): 5.07 cm | CCI % Increase over pre on 10th Day (chili seedlings; [24]): 52.55% | Plant Height % Increase over pre on 10th Day (chili seedlings; [24]): 59.00% | Root Lenght (cm) 10th Day (chili seedlings; [24]): 3.60 cm | Stem Girth % Increase over pre on 10th Day (chili seedlings; [24]): 45.45% | CCI 10th Day (chili seedlings; [25]): 14.98 | Plant Height (cm) 10th Day (chili seedlings; [25]): 6.98 cm | Root Lenght % Increase over control (chili seedlings; chili seedlings, dose 1 ml/gm/lit, 10th day, vs water control): 31.63% | Total No. of dead insect at 48 Hrs. (Thrips [7]): 52.50 | Total No. of dead insect at 72 Hrs. (Spodoptera litura [8]): 4.25 | % Disease reduction over Control (Alternaria alternata [9]): 47.11% | % Corrected Mortality at 72 Hrs. (Helicoverpa armigera [10]): 47.50% | % Mortality at 72 Hrs. (Helicoverpa armigera [10]): 47.50% | mortality at 1 mL or g/L (Aphid [11]; [26]): 47.1% | mortality at 1 mL or g/L (Aphid [11]; [27]): 55% | % Corrected Mortality at 72 Hrs. (Helicoverpa armigera [12]): 42.50% | % Mortality at 72 Hrs. (Helicoverpa armigera [12]): 42.50% | Total No. of dead insect at 48 Hrs. (Aphid [13]): 55.00 | Total No. of dead insect at 48 Hrs. (Thrips [14]): 5.25 | mortality at 1 mL or g/L (Thrips [15]; [26]): 45.7% | mortality at 1 mL or g/L (Thrips [15]; [27]): 52.5% | Mean colony Diameter (mm) (Alternaria alternata [16]): 55.50 mm | inhibition of growth at 1 mL or g/L (Alternaria alternata [16]): 36.9% | % Corrected Mortality at 48 Hrs. (Mealy Bug [17]): 38.89% | % Mortality at 48 Hrs. (Mealy Bug [17]): 45.00% | Plant Height 5th Day (tomato seedlings; [28]): 7.26 cm | Stem Girth 5th Day (tomato seedlings; [28]): 1.49 mm | Plant Height 10th Day (tomato seedlings; [29]): 8.34 cm | Stem Girth 10th Day (tomato seedlings; [29]): 2.25 mm | Plant Height % Increase over pre on 10th Day (tomato seedlings; [30]): 36.50% | Stem Girth % Increase over pre on 10th Day (tomato seedlings; [30]): 60.71% | CCI 5th Day (tomato seedlings; tomato seedlings, dose 1 ml/gm/lit, 5th day after application): 14.68 | CCI % Increase over pre on 10th Day (tomato seedlings; [31]): 32.22% | Root Length (cm) 10th Day (tomato seedlings; [31]): 4.69 cm | CCI 10th Day (tomato seedlings; tomato seedlings, dose 1 ml/gm/lit, 10th day after application): 16.58 | Root Length % Increase over control (tomato seedlings; tomato seedlings, dose 1 ml/gm/lit, 10th day, vs water control): 41.03% | % Corrected Mortality at 48 Hrs. (Mite [18]): 18.92% | % Mortality at 48 Hrs. (Mite [18]): 25.00% | % Corrected Mortality at 48 Hrs. (Mealy Bug [19]): 36.84% | % Mortality at 48 Hrs. (Mealy Bug [19]): 40.00%

C=CCc1ccc(O)c(OC)c1 [Eugenol]
% Corrected Mortality at 72 Hrs. (Spodoptera litura [1]): 60.53% | % Mortality at 72 Hrs. (Spodoptera litura [1]): 62.50% | % Corrected Mortality at 48 Hrs. (Thrips [2]): 19.44% | % Mortality at 48 Hrs. (Thrips [2]): 27.50% | Total No. of dead insect at 48 Hrs. (Aphid [3]): 6.00 | % Corrected Mortality at 48 Hrs. (Aphid [3]; Dose 1 ml/gm/lit., 48 hrs): 54.29% | % Mortality at 48 Hrs. (Aphid [3]; Dose 1 ml/gm/lit., 48 hrs): 60.00% | % Corrected Mortality at 48 Hrs. (Mite [4]): 50.00% | % Mortality at 48 Hrs. (Mite [4]): 52.50% | Acaricidal Activity - Mode of action [5, 20]: Inhibitory effects against | Antifungal Activity - Mode of action [5, 20]: Inhibition of myceial growth | Antioxidant Activity - Mode of action [5, 20]: Scavenge free radicals, | Bactericidal Activity - Mode of action [5, 20]: Alters membrane permeability | Insecticidal Activities - Mode of action [5, 20]: Growth inhibitory, | Nematicidal Activity - Mode of action [5, 20]: Inhibited egg differentiation | Virucidal Activity - Mode of action [5, 20]: Inactivated the cell-free | Phytotonic Effect [5]: Regulating | mortality at 1 mL or g/L (Spodoptera litura [6]; [21]): 57.9% | mortality at 1 mL or g/L (Spodoptera litura [6]; [22]): 60% | CCI Pre (chili seedlings): 10.10 | Plant Height (cm) Pre (chili seedlings): 4.57 cm | CCI 5th Day (chili seedlings; 120 h): 13.40 | Plant Height (cm) 5th Day (chili seedlings; 120 h): 6.53 cm | CCI 10th Day (chili seedlings; 240 h): 15.48 | Plant Height (cm) 10th Day (chili seedlings; 240 h): 7.59 cm | Root Lenght % Increase over control (chili seedlings; 240 h): 52.07% | CCI % Increase over pre on 10th Day (chili seedlings; [24]): 53.27% | Plant Height % Increase over pre on 10th Day (chili seedlings; [24]): 66.08% | Root Lenght (cm) 10th Day (chili seedlings; [24]): 4.16 cm | Stem Girth % Increase over pre on 10th Day (chili seedlings; [24]): 54.59% | Total No. of dead insect at 48 Hrs. (Thrips [7]): 27.50 | Total No. of dead insect at 72 Hrs. (Spodoptera litura [8]): 6.00 | % Corrected Mortality at 72 Hrs. (Helicoverpa armigera [10]): 42.50% | % Mortality at 72 Hrs. (Helicoverpa armigera [10]): 42.50% | mortality at 1 mL or g/L (Aphid [11]; [26]): 58.8% | mortality at 1 mL or g/L (Aphid [11]; [27]): 65% | % Corrected Mortality at 72 Hrs. (Helicoverpa armigera [12]): 47.50% | % Mortality at 72 Hrs. (Helicoverpa armigera [12]): 47.50% | Total No. of dead insect at 48 Hrs. (Aphid [13]): 65.00 | Total No. of dead insect at 48 Hrs. (Thrips [14]): 2.50 | mortality at 1 mL or g/L (Thrips [15]; [26]): 14.3% | mortality at 1 mL or g/L (Thrips [15]; [27]): 25% | inhibition of growth at 1 mL or g/L (Alternaria alternata [16]): 42.6% | % Corrected Mortality at 48 Hrs. (Mealy Bug [17]): 72.22% | % Mortality at 48 Hrs. (Mealy Bug [17]): 75.00% | CCI Pre (tomato seedlings): 11.50 | Plant Height Pre (tomato seedlings): 5.65 cm | Stem Girth Pre (tomato seedlings): 1.34 mm | CCI 5th Day (tomato seedlings; 120 h): 13.74 | Plant Height 5th Day (tomato seedlings; 120 h): 6.66 cm | Stem Girth 5th Day (tomato seedlings; 120 h): 1.70 mm | CCI 10th Day (tomato seedlings; 240 h): 15.48 | Plant Height 10th Day (tomato seedlings; 240 h): 7.56 cm | Root Length % Increase over control (tomato seedlings; 240 h): 31.25% | Stem Girth 10th Day (tomato seedlings; 240 h): 2.31 mm | Plant Height % Increase over pre on 10th Day (tomato seedlings; [30]): 33.81% | Stem Girth % Increase over pre on 10th Day (tomato seedlings; [30]): 72.90% | CCI % Increase over pre on 10th Day (tomato seedlings; [31]): 34.61% | Root Length (cm) 10th Day (tomato seedlings; [31]): 4.37 cm | % Corrected Mortality at 48 Hrs. (Mite [18]): 48.65% | % Corrected Mortality at 48 Hrs. (Mealy Bug [19]): 63.16% | % Mortality at 48 Hrs. (Mealy Bug [19]): 65.00%
